Test results reported in US12441743B2, “Spiro aromatic ring compound and use thereof” (Etern Biopharma (Shanghai) Co., Ltd., priority 2018, dated 2025).
Read-outs that look alike come from different tables or passages of the source.

Experiments:
SHP2 E76A protein = biological target: T1, SHP2 E76A protein (Homo sapiens, UniProt Q06124, E76A); test: SHP2 enzyme activity inhibition test (DiFMUP substrate, fluorescence); type: biochemical; settings: 50 ng SHP2 E76A, 20 min with compound, then 10 uM DiFMUP 20 min at room temperature
T1 sequence (Q06124 1-593 E76A): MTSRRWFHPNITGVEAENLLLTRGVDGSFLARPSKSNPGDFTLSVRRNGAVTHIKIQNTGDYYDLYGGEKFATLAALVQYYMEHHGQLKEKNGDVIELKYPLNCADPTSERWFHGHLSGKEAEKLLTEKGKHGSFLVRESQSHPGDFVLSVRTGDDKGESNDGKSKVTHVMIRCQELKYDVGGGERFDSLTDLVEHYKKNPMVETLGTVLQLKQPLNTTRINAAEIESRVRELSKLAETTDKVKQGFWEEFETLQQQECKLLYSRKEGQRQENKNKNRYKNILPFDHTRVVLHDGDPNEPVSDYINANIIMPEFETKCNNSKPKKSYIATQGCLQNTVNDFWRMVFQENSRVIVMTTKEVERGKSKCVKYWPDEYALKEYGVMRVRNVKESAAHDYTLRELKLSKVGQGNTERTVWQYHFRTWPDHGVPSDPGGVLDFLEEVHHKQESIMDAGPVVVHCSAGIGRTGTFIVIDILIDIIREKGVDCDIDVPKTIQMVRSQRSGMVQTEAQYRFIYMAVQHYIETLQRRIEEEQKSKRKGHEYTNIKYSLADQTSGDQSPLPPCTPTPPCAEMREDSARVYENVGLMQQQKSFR

MV4-11 cells = test: MV4-11 cell proliferation inhibition experiment (CellTiter-Glo); type: cell-based; settings: Homo sapiens, read-out: Cell proliferation inhibition activity
Description: The number of living cells in the culture was determined by quantitative determination of intracellular ATP using CellTiter-Glo® Luminescent Cell Viability Assay kit.
In the first step, MV4-11 cells were inoculated into 96-well plates with a density of 2500 cells per well and a volume of 100 μL per well. The plates were placed in 37° C., 5% carbon dioxide incubator overnight.
In the second step, cells were treated with compounds. The compounds to be tested were diluted 3 times, and 8 concentration gradients were set up. Each well was added with a certain volume of DMSO or the compound to be tested, and each concentration was tested in 2 replicates, and the final concentration of DMSO was 0.5%. The plates were placed in 37° C., 5% carbon dioxide incubator for 72 h.
In the third step, cell viability of the control groups and the treatment groups was determined using CellTiter-Glo® Luminescent Cell Viability Assay kit (Promega, G7570). Each well was added with 50 uL CellTiter-Glo. The culture was mixed well, and incubated at room temperature for 10 min. Signals were read using EnSpire (Perkin Elmer). Inhibition percentages (%) were calculated by the following formula:
Inhibition percentage (%)=(1−signal value of compound treatment group/signal value of DMSO treatment group)*100.

[1] = Pharmacokinetics experiment, intragastric single dose; type: in vivo; settings: mouse, plasma, male mice, oral administration dosage 5 mg/Kg; for half-life: read-out: Half-life T1/2 (converted); for Cmax: read-out: Maximum plasma concentration Cmax; for AUC: read-out: Plasma exposure AUC
Description: Pharmacokinetics of the compound of the disclosure was determined. The following method was used to determine the pharmacokinetic parameters of the compound of the disclosure. Healthy male adult mice were used in the study. Each group was intragastrically administered with a single dose of 5-100 mg/kg. Fasting lasted from 10 hours before administration to 4 hours after administration. Blood samples were collected at different time points after administration and the compound content in plasma was determined by LC-MS/MS. The relationship between plasma concentration and time was analyzed by professional software (winnonlin), and the pharmacokinetic parameters of the compounds were calculated. According to Table 3, the compounds of the disclosure have excellent pharmacokinetic properties.

[2] = MV4-11 cells, 72 h, CellTiter-Glo

| IC50 (SHP2 E76A protein) [nM] | IC50 (MV4-11 cells; [2]) [nM] | SMILES | also measured |
| --- | --- | --- | --- |
| 11 | 99 | Nc1nccc(Sc2cnc(N3CCC4(CC3)Cc3ncccc3[C@H]4N)n3cnnc23)c1Cl [Compound 3, (S)-1′-(8-((2-amino-3-chloropyridin-4-yl)thio)-[1,2,4]triazolo[4,3-c]pyrimidin-5-yl)-5,7-dihydrospiro[cyclopenta[b]pyridine-6,4′-piperidine]-5-amine] | – |
| 1 | 1 | Nc1nccc(Sc2cnc(N3CCC4(CC3)Cc3ccc(F)cc3[C@H]4N)n3ccnc23)c1Cl [Compound 13, (S)-1′-(8-((2-amino-3-chloropyridin-4-yl)thio)imidazo[1,2-c]pyrimidin-5-yl)-6-fluoro-1,3-dihydrospirolindene-2,4′-piperidinel-1-amine] | – |
| 7 | 7 | Nc1nccc(Sc2cnc(N3CCC4(CC3)Cc3ccccc3[C@H]4N)n3ccnc23)c1Cl [Compound 4, (S)-1′-(8-((2-amino-3-chloropyridin-4-yl)thio)imidazolo[1,2-c]pyrimidin-5-yl)-1,3-dihydrospirolindene-2,4′-piperidinel-1-amine] | bioavailability [1]: 34%; half-life [1]: 5.4 h; Cmax [1]: 7 µM; AUC [1]: 29 µM·h |
| 3 | 94 | Nc1nccc(Sc2cnc(N3CCC4(CC3)Cc3cnccc3[C@H]4N)n3cnnc23)c1Cl [Compound 15, (S)-1′-(8-((2-amino-3-chloropyridin-4-yl)thio)-[1,2,4]triazolo[4,3-c]pyrimidin-5-yl)-5,7-dihydrospiro[cyclopenta[c]pyridine-6,4′-piperidine]-5-amine] | – |
| 1 | 30 | Nc1nccc(Sc2cnc(N3CCC4(CC3)Cc3cccnc3[C@H]4N)n3cnnc23)c1Cl [Compound 11, (S)-1′-(8-((2-amino-3-chloropyridin-4-yl)thio)-[1,2,4]triazolo[4,3-c]pyrimidin-5-yl)-5,7-dihydrospiro[cyclopenta[b]pyridine-6,4′-piperidine]-7-amine] | – |
| 10 | 35 | N#Cc1cccc2c1CC1(CCN(c3ncc(Sc4ccnc(N)c4Cl)c4nncn34)CC1)[C@@H]2N [Compound 17, (S)-1-amino-1′-(8-((2-amino-3-chloropyridin-4-yl)thio)-[1,2,4]triazolo[4,3-c]pyrimidin-5-yl)-1,3-dihydrospiro[indene-2,4′-piperidine]-4-nitrile] | – |
| 7 | 1 | COc1cccc2c1CC1(CCN(c3ncc(Sc4ccnc(N)c4Cl)c4nncn34)CC1)[C@@H]2N [Compound 19, (S)-1′-(8-((2-amino-3-chloropyridin-4-yl)thio)-[1,2,4]triazolo[4,3-c]pyrimidin-5-yl)-4-methoxy-1,3-dihydrospiro[indene-2,4′-piperidine]-1-amine] | – |
| 7 | 42 | Nc1nccc(Sc2cnc(N3CCC4(CC3)Cc3nccnc3[C@H]4N)n3ccnc23)c1Cl [Compound 18, (S)-1′-(8-((2-amino-3-chloropyridin-4-yl)thio)imidazo[1,2-c]pyrimidin-5-yl)-5,7-dihydrospiro[cyclopenta[b]pyrazine-6,4′-piperidine]-5-amine] | bioavailability [1]: 72%; half-life [1]: 3.5 h; Cmax [1]: 6.5 µM; AUC [1]: 40 µM·h |
| 6 | 4 | Nc1nccc(Sc2cnc(N3CCC4(CC3)Cc3ncccc3[C@H]4N)n3ccnc23)c1Cl [Compound 6, (S)-1′-(8-((2-amino-3-chloropyridin-4-yl)thio)imidazo[1,2-c]pyrimidin-5-yl)-5,7-dihydrospiro[cyclopenta[b]pyridine-6,4′-piperidine]-5-amine] | bioavailability [1]: 37%; half-life [1]: 3.1 h; Cmax [1]: 6 µM; AUC [1]: 35 µM·h |
| 11 | – | N[C@@H]1c2ncccc2CC12CCN(c1ncc(Sc3cccnc3C(F)(F)F)c3nncn13)CC2 [Compound 21, (S)-1′-(8-((2-(trifluoromethyl)pyridin-3-yl)thio)-[1,2,4]-triazolo[4,3-c]pyrimidin-5-yl)-5,7-dihydrospiro[cyclopenta[b]pyridine-6,4′-piperidine]-7-amine] | – |
| 6 | – | Nc1nccc(Sc2cnc(N3CCC4(CC3)Cc3nccnc3[C@H]4N)n3cnnc23)c1Cl [Compound 20, (S)-1′-(8-((2-amino-3-chloropyridin-4-yl)thio)-[1,2,4]triazolo[4,3-c]pyrimidin-5-yl)-5,7-dihydrospiro[cyclopenta[b]pyrazine-6,4′-piperidine]-5-amine] | – |
| 8 | 36 | Nc1nccc(Sc2cnc(N3CCC4(CC3)Cc3cnccc3[C@H]4N)n3ccnc23)c1Cl [Compound 14, (S)-1′-(8-((2-amino-3-chloropyridin-4-yl)thio)imidazo[1,2-c]pyrimidin-5-yl)-5,7-dihydrospiro[cyclopenta[c]pyridine-6,4′-piperidine]-5-amine] | – |
| 10 | 33 | Nc1nccc(Sc2cnc(N3CCC4(CC3)Cc3ccncc3[C@H]4N)n3ccnc23)c1Cl [Compound 8, (S)-1′-(8-((2-amino-3-chloropyridin-4-yl)thio)imidazo[1,2-c]pyrimidin-5-yl)-5,7-dihydrospiro[cyclopenta[c]pyridine-6,4′-piperidine]-7-amine] | – |
| 9 | – | Nc1nccc(Sc2cnc(N3CCC4(CC3)Cc3sc(Cl)nc3[C@H]4N)n3ccnc23)c1Cl [Compound 22] | – |
| 4 | 11 | Nc1nccc(Sc2cnc(N3CCC4(CC3)Cc3ccccc3[C@H]4N)n3cnnc23)c1Cl [Compound 2] | – |
| 2 | 30 | Nc1nccc(Sc2cnc(N3CCC4(CC3)Cc3ccc(F)cc3[C@H]4N)n3cnnc23)c1Cl [Compound 12, (S)-1′-(8-((2-amino-3-chloropyridin-4-yl)thio)-[1,2,4]triazolo[4,3-c]pyrimidin-5-yl)-6-fluoro-1,3-dihydrospiro[indene-2,4′-piperidine]-1-amine] | – |
| 26 | 423 | C[C@@H]1OCC2(CCN(c3ncc(Sc4ccnc(N)c4Cl)n4nccc34)CC2)[C@@H]1N [Positive control aa, reference compound] | – |
| 9 | – | N[C@@H]1c2cccnc2CC12CCN(c1ncc(Sc3ccnc4[nH]ncc34)c3nccn13)CC2 [Compound 23] | – |

| SMILES | IC50 (SHP2 E76A protein) [nM] | IC50 (MV4-11 cells; [2]) [nM] | also measured |
| --- | --- | --- | --- |
| N[C@@H]1c2ncccc2CC12CCN(c1ncc(Sc3ccnc(Cl)c3Cl)c3nncn13)CC2 [Compound 9, (S)-1′-(8-(2,3-dichloropyridin-4-yl)thio-[1,2,4]-triazolo[4,3-c]pyrimidin-5-yl)-5,7-dihydrospiro[cyclopenta[b]pyridine-6,4′-piperidine]-7-amine] | 7 | – | IC50 (MV4-11 cells; MV4-11, 72 h): 60 nM |
| N[C@@H]1c2cccnc2CC12CCN(c1ncc(Sc3ccnc4c3CCO4)c3nccn13)CC2 [Compound 1] | 11 | – | IC50 (MV4-11 cells; MV4-11, 72 h): 68 nM |
| Nc1nccc(Sc2cnc(N3CCC4(CC3)Cc3c(O)cccc3[C@H]4N)n3cnnc23)c1Cl [Compound 16, (S)-1-amino-1′-(8-((2-amino-3-chloropyridin-4-yl)thio)-[1,2,4]triazolo[4,3-c]pyrimidin-5-yl)-1,3-dihydrospiro[indene-2,4′-piperidin]-4-ol] | 2 | – | IC50 (MV4-11 cells; MV4-11, 72 h): 52 nM |
| CNc1nccc(Sc2cnc(N3CCC4(CC3)Cc3ncccc3[C@H]4N)n3ccnc23)c1Cl [Compound 5, (S)-1′-(8-((3-chloro-2-(methylamino)pyridin-4-yl)thio)imidazo[1,2-c]pyrimidin-5-yl)-5,7-dihydrospiro[cyclopenta[b]pyridine-6,4′-piperidine]-5-amine] | 5 | – | IC50 (MV4-11 cells; MV4-11, 72 h): 6 nM |
